Measured values reported in PubChem BioAssay (NCI).
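At the GI50, growth is halved. At the TGI there is no net growth.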

Experiments:
Assay in all cases: NCI-60 cell line screen, 384-well format
[1] = test system: MDA-MB-231 breast
[2] = test system: TK-10 renal
[3] = test system: KM12 colon
[4] = test system: HL-60(TB) leukemia
[5] = test system: HOP-62 NSCLC
[6] = test system: CCRF-CEM leukemia
[7] = test system: OVCAR-4 ovarian
[8] = test system: SNB-19 CNS
[9] = test system: RXF 393 renal
[10] = test system: OVCAR-5 ovarian
[11] = test system: HS 578T breast
[12] = test system: CAKI-1 renal
[13] = test system: SNB-75 CNS
[14] = test system: BT-549 breast
[15] = test system: DU-145 prostate
[16] = test system: HCT-15 colon
[17] = test system: A498 renal
[18] = test system: SN12C renal
[19] = test system: UACC-257 melanoma
[20] = test system: SW-620 colon
[21] = test system: MALME-3M melanoma
[22] = test system: SK-MEL-5 melanoma
[23] = test system: 786-0 renal
[24] = test system: SK-MEL-2 melanoma
[25] = test system: HOP-92 NSCLC
[26] = test system: MDA-MB-468 breast
[27] = test system: SK-OV-3 ovarian
[28] = test system: T-47D breast

**Q.** Which GI50 [1] does the source give for COc1ccc(-c2c(Nc3ccccn3)nc3c(C4=CCCCC4)c(-c4ccccc4)[nH]n3c2=O)cc1 here?
**A.** The GI50 was 1240 nM.

**Q.** What about the TGI [1] of the same compound?
**A.** The TGI was 6850 nM.

**Q.** And the GI50 [2]?
**A.** The GI50 was 1640 nM.

**Q.** And the TGI [2]?
**A.** The TGI was greater than 100000 nM.

**Q.** What about the GI50 [3] of the same compound?
**A.** The GI50 was 2160 nM.

**Q.** And the TGI [3]?
**A.** Its TGI is greater than 100000 nM.

**Q.** And the GI50 [4]?
**A.** Its GI50 is 580 nM.

**Q.** What about the TGI [4] of the same compound?
**A.** The TGI was 1850 nM.

**Q.** What about the GI50 [5] of the same compound?
**A.** The GI50 was 717 nM.

**Q.** What about the TGI [5] of the same compound?
**A.** The TGI was 9610 nM.

**Q.** And the GI50 [6]?
**A.** Its GI50 is 304 nM.

**Q.** And the TGI [6]?
**A.** Its TGI is 1100 nM.

**Q.** What about the GI50 [7] of the same compound?
**A.** Its GI50 is 1590 nM.

**Q.** And the TGI [7]?
**A.** The TGI was greater than 100000 nM.

**Q.** What about the GI50 [8] of the same compound?
**A.** Its GI50 is 2000 nM.

**Q.** What about the TGI [8] of the same compound?
**A.** Its TGI is greater than 100000 nM.

**Q.** And the GI50 [9]?
**A.** The GI50 was 108 nM.

**Q.** What about the TGI [9] of the same compound?
**A.** The TGI was 2720 nM.

**Q.** And the GI50 [10]?
**A.** The GI50 was 2320 nM.

**Q.** What about the TGI [10] of the same compound?
**A.** Its TGI is greater than 100000 nM.

**Q.** What about the GI50 [11] of the same compound?
**A.** Its GI50 is 1060 nM.

**Q.** What about the TGI [11] of the same compound?
**A.** Its TGI is 14500 nM.

**Q.** And the GI50 [12]?
**A.** Its GI50 is 1380 nM.

**Q.** What about the TGI [12] of the same compound?
**A.** The TGI was greater than 100000 nM.

**Q.** What about the GI50 [13] of the same compound?
**A.** The GI50 was 8110 nM.

**Q.** What about the TGI [13] of the same compound?
**A.** Its TGI is greater than 100000 nM.

**Q.** And the GI50 [14]?
**A.** The GI50 was 461 nM.

**Q.** And the TGI [14]?
**A.** Its TGI is greater than 100000 nM.

**Q.** And the GI50 [15]?
**A.** The GI50 was 727 nM.

**Q.** And the TGI [15]?
**A.** Its TGI is 9510 nM.

**Q.** And the GI50 [16]?
**A.** The GI50 was 1360 nM.

**Q.** And the TGI [16]?
**A.** Its TGI is greater than 100000 nM.

**Q.** What about the GI50 [17] of the same compound?
**A.** Its GI50 is 309 nM.

**Q.** What about the TGI [17] of the same compound?
**A.** The TGI was greater than 100000 nM.

**Q.** And the GI50 [18]?
**A.** The GI50 was 1990 nM.

**Q.** What about the TGI [18] of the same compound?
**A.** The TGI was greater than 100000 nM.

**Q.** What about the GI50 [19] of the same compound?
**A.** Its GI50 is 1610 nM.

**Q.** What about the TGI [19] of the same compound?
**A.** Its TGI is greater than 100000 nM.

**Q.** What about the GI50 [20] of the same compound?
**A.** Its GI50 is 3000 nM.

**Q.** And the TGI [20]?
**A.** The TGI was greater than 100000 nM.

**Q.** And the GI50 [21]?
**A.** The GI50 was 1290 nM.

**Q.** What about the TGI [21] of the same compound?
**A.** Its TGI is greater than 100000 nM.

**Q.** What about the GI50 [22] of the same compound?
**A.** The GI50 was 835 nM.

**Q.** And the TGI [22]?
**A.** The TGI was 2640 nM.

**Q.** And the GI50 [23]?
**A.** Its GI50 is 2410 nM.

**Q.** And the TGI [23]?
**A.** Its TGI is greater than 100000 nM.

**Q.** What about the GI50 [24] of the same compound?
**A.** The GI50 was 2180 nM.

**Q.** And the TGI [24]?
**A.** The TGI was 9100 nM.

**Q.** What about the GI50 [25] of the same compound?
**A.** The GI50 was 1940 nM.

**Q.** And the TGI [25]?
**A.** Its TGI is 74900 nM.

**Q.** What about the GI50 [26] of the same compound?
**A.** Its GI50 is 967 nM.

**Q.** What about the TGI [26] of the same compound?
**A.** Its TGI is 2780 nM.

**Q.** And the GI50 [27]?
**A.** Its GI50 is 604 nM.

**Q.** What about the TGI [27] of the same compound?
**A.** Its TGI is greater than 100000 nM.

**Q.** And the GI50 [28]?
**A.** The GI50 was 1060 nM.

**Q.** And the TGI [28]?
**A.** Its TGI is greater than 100000 nM.
